Measured values: patent publication US20020028938A1, “Prostaglandin endoperoxide H synthase biosynthesis inhibitors” (priority 1997, published 2002)
pIC50: −log10 of the molar value.

Tests used:
[1] = molecular target: T1, recombinant human Cox-1 (r-hu Cox1) (Homo sapiens, UniProt P23219); experiment: Recombinant human PGHS-1 enzyme assay (RHUCX1); type: biochemical
T1 construct: made in house; host or cells: baculovirus/Sf9 insect cells (microsomes)
In short: (§1)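 PGE2 production measured by enzyme immunoassay with standards in the same milieu. Inhibition was computed versus control group mean and IC50 estimated by linear regression.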

[2] = molecular target: T2, recombinant human Cox-2 (r-hu Cox-2) (Homo sapiens, UniProt P35354); experiment: Recombinant human PGHS-2 enzyme assay (RHUCX2); type: biochemical; conditions: for inhibition at 0.1 µM / inhibition at 1 µM / inhibition at 10 µM / inhibition at 0.01 µM: read-out: RHUCX2 % Inh. at Dose; for pIC50: read-out: RHUCX2 IC50 (parenthetical value)
T2 construct: made in house; host or cells: baculovirus/Sf9 insect cells (microsomes)
T2 sequence (P35354 18-604): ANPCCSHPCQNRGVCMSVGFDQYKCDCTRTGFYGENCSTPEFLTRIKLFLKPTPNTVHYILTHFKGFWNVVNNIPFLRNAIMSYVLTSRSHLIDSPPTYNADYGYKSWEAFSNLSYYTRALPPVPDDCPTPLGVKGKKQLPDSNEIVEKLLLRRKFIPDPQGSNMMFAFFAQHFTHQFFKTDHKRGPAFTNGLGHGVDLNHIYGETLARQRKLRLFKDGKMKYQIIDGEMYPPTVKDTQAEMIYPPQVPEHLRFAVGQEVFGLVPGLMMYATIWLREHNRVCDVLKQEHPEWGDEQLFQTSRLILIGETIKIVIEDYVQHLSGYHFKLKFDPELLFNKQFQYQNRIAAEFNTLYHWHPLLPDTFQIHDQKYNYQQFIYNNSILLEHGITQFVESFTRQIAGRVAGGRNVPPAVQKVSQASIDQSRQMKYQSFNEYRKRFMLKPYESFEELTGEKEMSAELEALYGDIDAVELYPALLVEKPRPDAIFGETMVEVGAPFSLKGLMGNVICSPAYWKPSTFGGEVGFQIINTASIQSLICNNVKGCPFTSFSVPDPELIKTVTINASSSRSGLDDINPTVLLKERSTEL
In short: as §1

[3] = molecular target: T3, human amnionic whole cell cyclooxygenase-2 (WISH cells) (Homo sapiens, UniProt P35354); experiment: IL-1β induced PGE2 production in WISH cells; type: cell-based; conditions: for pIC50: read-out: Wish IC50 (parenthetical value); for inhibition at 0.01 µM / inhibition at 0.1 µM / inhibition at 1 µM: read-out: Wish % Inhib. at Dose
T3 construct: endogenous in cells; host or cells: human amnionic WISH cells, induced with IL-1beta
T3 sequence (P35354 18-604): T2 sequence (P35354 18-604)
Method: EIA reagents for prostaglandin determination were purchased from Perseptive Diagnostics, (Cambridge, Mass.). Prostaglandin E2 (PGE2) levels in lavage fluids were determined after the samples were dried under nitrogen and reconstituted with assay buffer. PGE2 levels in enzyme assays or cell culture media were measured against standards prepared in the same milieu. The immunoassays were conducted as recommended by the manufacturer. The EIA was conducted in 96 well microtiter plates (Nunc Roskilde, Denmark) and optical density was measured using a microplate reader (Vmax, Molecular Devices Corp., Menlo Park, Calif.).
Human amnionic WISH cells were grown to 80% confluence in 48 well plates. Following removal of the growth medium and two washings with Geys Balanced Salt Solutn, 5 ng IL-1β /ml (UBI, Lake Placid, N.Y.) was added to the cells with or without test compound in DMSO (0.01% v/v) in Neuman-Tytell Serumless Medium (GIBCO, Grand Island, N.Y.).

[4] = 100 μM, read-out: RHUCX1 % Inh. at Dose

T1 sequence (P23219 24-599): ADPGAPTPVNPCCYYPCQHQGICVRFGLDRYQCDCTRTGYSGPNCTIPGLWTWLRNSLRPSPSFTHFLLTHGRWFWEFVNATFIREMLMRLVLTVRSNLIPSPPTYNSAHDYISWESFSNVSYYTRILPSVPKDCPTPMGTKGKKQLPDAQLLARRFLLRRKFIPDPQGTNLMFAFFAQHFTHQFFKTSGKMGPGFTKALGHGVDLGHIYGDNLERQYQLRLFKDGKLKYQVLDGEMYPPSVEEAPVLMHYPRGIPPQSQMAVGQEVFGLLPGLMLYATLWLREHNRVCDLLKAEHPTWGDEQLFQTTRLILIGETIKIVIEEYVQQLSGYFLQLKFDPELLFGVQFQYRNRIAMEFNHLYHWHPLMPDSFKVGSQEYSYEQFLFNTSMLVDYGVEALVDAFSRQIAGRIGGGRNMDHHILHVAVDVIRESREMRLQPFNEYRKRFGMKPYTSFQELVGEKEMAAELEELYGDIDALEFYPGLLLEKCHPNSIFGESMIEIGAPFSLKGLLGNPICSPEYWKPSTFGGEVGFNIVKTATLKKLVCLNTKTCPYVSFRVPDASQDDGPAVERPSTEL

inhibition at 100 µM [1, 4] | inhibition at 0.1 µM [2] | inhibition at 1 µM [2] | pIC50 [3] | melting point | pIC50 [2] | SMILES | further results
13% | 65% | 98% | 7.70 | 161 to 163 °C |  | CS(=O)(=O)c1ccc(-c2cnn(Cc3ccccc3)c(=O)c2-c2ccc(Cl)c(Cl)c2)cc1 [Example 65, 2-Benzyl-4-(3,4-dichlorophenyl)-5-[4-(methylsulfonyl)phenyl]-3(2H)-pyridazinone] | 
 | 43% | 88% |  | 195 to 197 °C |  | CS(=O)(=O)c1ccc(-c2cnn(C3C4CC5CC(C4)CC3C5)c(=O)c2-c2ccc(F)cc2)cc1 (stereo not shown) [Example 132, 2-(2-Adamantyl)-4-(4-fluorophenyl)-5-[4-(methylsulfonyl)phenyl]-3(2H)-pyridazinone] | inhibition at 1 µM ([1]; 1 μM, read-out: RHUCX1 % Inh. at Dose): 93%; inhibition at 0.01 µM ([3]; 0.01 μM): 36%; inhibition at 0.1 µM [3]: 100%
0% | 61% | 74% |  | 157 to 159 °C |  | CS(=O)(=O)c1ccc(-c2cnn(-c3ccc(F)c(F)c3)c(=O)c2Cc2ccc(F)cc2)cc1 [Example 171, 2-(3,4-Difluorophenyl)-4-(4-fluorobenzyl)-5-[4-(methylsulfonyl)phenyl]-3(2H)-pyridazinone] | inhibition at 10 µM [2]: 82%; inhibition at 0.1 µM [3]: 56%; inhibition at 1 µM [3]: 90%
10% | 23% | 68% | 6.74 | 45 to 60 °C |  | CC(C)CSCc1c(-c2ccc(S(C)(=O)=O)cc2)cnn(-c2ccc(F)cc2)c1=O [Example 198, 2-(4-Fluorophenyl)-4-(2-methylpropylthiomethyl)-5-[4-(methylsulfonyl)phenyl]-3(2H)-pyridazinone] | 
0% |  |  | 7.32 | 142 to 143 °C | 7.55 | CS(=O)(=O)c1ccc(-c2cnn(-c3cccc(Cl)c3)c(=O)c2Cc2cccc(F)c2)cc1 [Example 241, 2-(3-Chlorophenyl)-4-(3-fluorobenzyl)-5-[4-(methylsulfonyl)phenyl]-3(2H)-pridazinone] | 
0% | 87% |  | 7.36 | 102 to 104 °C |  | CC(C)CCc1c(-c2ccc(S(C)(=O)=O)c(F)c2)cnn(-c2ccc(F)c(Cl)c2)c1=O [Example 252, 2-(3-Chloro-4-fluorophenyl)-4-(3-methylbutyl)-5-[3-fluoro-4-(methylsulfonyl)phenyl]-3(2H)-pyridazinone] | inhibition at 0.01 µM [2]: 26%
36% | 91% | 96% | 7.15 | 108 to 110 °C |  | CC(C)COc1c(-c2ccc(S(C)(=O)=O)cc2)cnn(CC(F)(F)F)c1=O [Example 278, 2-(2,2,2-Trifluoroethyl)-4-(2-methylpropoxy)-5-[4-(methylsulfonyl)phenyl]-3(2H)-pyridazinone] | 
0% | 31% | 60% | 6.41 | 98 to 99 °C |  | CC1(COc2c(-c3ccc(S(C)(=O)=O)cc3)cnn(CC(F)(F)F)c2=O)CC1 [Example 279] | 
0% | 25% | 79% | 6.80 | 165 to 167 °C |  | CS(=O)(=O)c1ccc(-c2cnn(CC(F)(F)F)c(=O)c2SC2CCCCC2)cc1 [Example 287, 2-(2,2,2-Trifluoroethyl)-4-(cyclohexylthio)-5-[4-(methylsulfonyl)phenyl]-3(2H)-pyridazinone] | inhibition at 10 µM [2]: 93%
4% |  |  |  |  | 6.72 | CS(=O)(=O)c1ccc(-c2cnn(Cc3ccccc3)c(=O)c2-c2cccc([N+](=O)[O-])c2)cc1 [Example 321, 2-Benzyl-4-(3-nitrophenyl)-5-[4-(methylsulfonyl)phenyl]-3(2H)-pyridazinone] | inhibition at 0.01 µM ([3]; 0.01 μM): 50%
39% |  |  | 7.59 |  | 7.24 | C=Cc1ccc(-c2c(-c3ccc(S(C)(=O)=O)cc3)cnn(Cc3ccccc3)c2=O)cc1 [Example 322, 2-Benzyl-4-(4-vinylphenyl)-5-[4-(methylsulfonyl)phenyl]-3(2H)-pridazinone] | inhibition at 10 µM ([1]; 10 μM, read-out: RHUCX1 % Inh. at Dose): 54%
 |  |  |  |  | 6.44 | CS(=O)(=O)c1ccc(-c2cnn(Cc3ccccc3)c(=O)c2-c2ccc(C(F)(F)F)cc2)cc1 [Example 323, 2-Benzyl-4-(4-trifluormethylphenyl)-5-[4-(methylsulfonyl)phenyl]-3(2H)-pyridazinone] | RHUCX1 % Inh. at Dose (μM) ([1]; 100 μM): 1 @ 100%; Wish % Inhib. at Dose (μM) ([3]; 0.01 μM): 57 @ 0.01%
16% |  |  | 7.00 | 191 to 193 °C | 6.05 | CN(C)c1cccc(Oc2c(-c3ccc(S(C)(=O)=O)cc3)cnn(-c3cccc(Cl)c3)c2=O)c1 [Example 344, 2-(3-Chlorophenyl)-4-[3-(dimethylamino)phenoxy]-5-[4-(methylsulfonyl)phenyl]-3(2H)-pyridazinone] | 
0% |  |  | 7.52 | 182 to 184 °C | 6.62 | COc1ccc(Oc2c(-c3ccc(S(C)(=O)=O)cc3)cnn(-c3cccc(Cl)c3)c2=O)cc1 [Example 345, 2-(3-Chloroophenyl)-4-(4-methoxyphenoxy)-5-[4-(methylsulfonyl)phenyl]-3(2H)-pyridazinone] | 
30% |  |  |  | 110 to 114 °C | 5.61 | CS(=O)(=O)c1ccc(-c2cnn(-c3cccc(Cl)c3)c(=O)c2Sc2ccccn2)cc1 [Example 358, 2-(3-Chlorophenyl)-4-(2-pyridylthio)-5-[4-(methylsulfonyl)phenyl]-3(2H)-pyridazinone] | inhibition at 0.1 µM [3]: 0%; inhibition at 1 µM [3]: 69%
0% |  |  | 7.54 | 180 to 183 °C | 6.55 | NS(=O)(=O)c1ccc(-c2cnn(CC=C(F)F)c(=O)c2-c2ccc(F)cc2)cc1F [Example 408] | 
 |  |  | 7.28 |  |  | CC(C)=CCCOc1c(-c2ccc(S(N)(=O)=O)cc2)cnn(-c2ccc(F)c(F)c2)c1=O [Example 410] | RHUCX1 % Inh. at Dose (μM) ([1]; 10 μM): 1 @ 10%; RHUCX1 % Inh. at Dose (μM) ([1]; 100 μM): 48 @ 100%; RHUCX2 % Inh. at Dose (μM) ([2]; 0.017 μM): 47 @ 0.017%; RHUCX2 % Inh. at Dose (μM) ([2]; 0.035 μM): 67 @0 .035%
0% | 76% | 87% |  | 123 to 125 °C |  | CC(C)CCCOc1c(-c2ccc(S(C)(=O)=O)cc2)cnn(-c2ccc(F)cc2)c1=O [Example 414, 2-(4-Fluorophenyl)-4-(4-methylpentyloxy)-5-[4-(methylsulfonyl)phenyl]-3(2H)-pyridazinone] | inhibition at 0.1 µM [3]: 46%; inhibition at 1 µM [3]: 54%
55% | 90% |  | 6.38 | 135 to 137 °C |  | COC(Cn1ncc(-c2ccc(S(C)(=O)=O)cc2)c(-c2ccc(F)cc2)c1=O)c1ccccc1 (stereo not shown) [Example 442, 2-(2-Methoxy-2-phenylethyl)-4-(4-fluorophenyl)-5-[4-(methylsulfonyl)phenyl]-3(2H)-pyridazinone] | inhibition at 0.01 µM [2]: 56%
